# Several values for one entry are separate records, joined by “and”; a condition that tells them apart may be missing. Equal entries are not always repeated.
# System: human female patients diagnosed as having adenomyosis
# Assay: human clinical trial in adenomyosis (single-patient longitudinal case study and multi-patient analysis, n = 6)
# Format: in vivo
# From the text: This examples describes the results of a human clinical trial conducted to evaluate the ability of a GnRH antagonist, 3-[2-fluoro-5-(2,3-difluoro-6-methoxybenzyloxy)4-methoxyphenyl]-2,4-dioxo-1,2,3,4-tetrahydrothieno [3,4d]pyrimidine-5-carboxylic acid (represented by formula (VI)), or a pharmaceutically acceptable salt thereof, to treat adenomyosis, an estrogen-dependent disease, in human patients diagnosed as having this condition.
# One aim of this study was to investigate the ability of the GnRH antagonist to maintain its therapeutic effects despite being administered to patients in a progressively lower dosage throughout the trial. To this end, the patients treated in this study was first administered the GnRH antagonist of formula (VI) in an amount of 200 mg/day during an initial 12-week period. The GnRH antagonist was then administered to the patients in a reduced amount of 100 mg/day during a subsequent 12-week period. The patients' responsiveness to the GnRH antagonist was monitored throughout the study.
# In addition to assessing the effectiveness of the GnRH antagonist when administered at lower doses, another aim of this study was to evaluate the ability of the GnRH antagonist to sustain its therapeutic effects even after treatment was ceased altogether. Accordingly, after being periodically administered the GnRH antagonist of formula (VI) over the course of 24 weeks, first in an amount of 200 mg/day and then in an amount of 100 mg/day, treatment with the GnRH antagonist was halted entirely. The patients were then monitored during a post-treatment follow-up period to analyze the extent to which the therapeutic effects of the compound were sustained.
# To test the effects of compound (VI), a total of n=6 human female patients diagnosed as having adenomyosis were administered compound (VI) in accordance with the dosing schedule described above. One of these patients in particular was closely monitored beginning well before their treatment with compound (VI) was initiated. The specific results of this patient's therapy are described in the section entitled “Single-Patient Longitudinal Case Study,” below. The cumulative set of results for all 6 patients is reported in the section entitled “Multi-Patient Analysis,” below.
# As part of the clinical trial, a case study was conducted in which a single patient of reproductive age having clinically diagnosed adenomyosis was monitored during the course of treatment with compound (VI). The patient was nulliparous. Two years before the study began, the patient presented with heavy menstrual bleeding, pelvic pain, and dysmenorrhea. […] Their gynecologist prescribed ulipristal acetate (UPA), a selective progesterone receptor modulator (SPRM), to be administered in an amount of 5 mg/day over the course of a treatment period lasting three months.
# The patient was then recommended for treatment with the GnRH antagonist represented by formula (VI) herein. Accordingly, the patient was orally administered compound (VI) in an amount of 200 mg/day for three months. Following this initial three-month period, the patient was orally administered compound (VI) in a reduced amount of 100 mg/day for a subsequent three-period. During both treatment periods, compound (VI) was administered to the patient in the form of a choline salt.
# The patient was recommended for once-daily treatment with the GnRH antagonist of formula (VI). Accordingly, the patient was administered the GnRH antagonist of formula (VI) in an amount of 200 mg/day during a first treatment period, which lasted three months. At the conclusion of the first treatment period, the patient began a second treatment period in which they were administered compound (VI) in a reduced amount of 100 mg/day for three months. During both treatment periods, compound (VI) was administered to the patient in the form of a choline salt. […]
# [1] = n = 6, after 12 weeks, 200 mg/day
# [2] = single patient, after 24 weeks (200 mg/day 12 weeks, then 100 mg/day 12 weeks)
smiles,measurement,setting,value
"COc1cc(F)c(-n2c(=O)[nH]c3csc(C(=O)O)c3c2=O)cc1OCc1c(OC)ccc(F)c1F [Compound (VI), 3-[2-fluoro-5-(2,3-difluoro-6-methoxybenzyloxy)4-methoxyphenyl]-2,4-dioxo-1,2,3,4-tetrahydrothieno [3,4d]pyrimidine-5-carboxylic acid]",serum E2,"all n = 6 cases, first 12 weeks, 200 mg/day",less than 20 pg/ml
same,anemia,"all n = 6 patients, after 12 weeks, 200 mg/day",resolved
same,adenomyotic lesions by MRI,"all n = 6 patients, after 24 weeks",remained smaller than those observed at baseline
same,BMD by DEXA,"each of n = 6 patients, after 24 weeks",either minimal change or no change from baseline
same,Week 24 Uterine Volume,"individual patients 1-3, 200 mg/day 12 weeks, then 100 mg/day 12 weeks, MRI",440 cm^3 and 75 cm^3 and 266 cm^3
same,Week 12 Uterine Volume,"individual patients 1-6, 200 mg/day oral for 12 weeks (choline salt), MRI",81 cm^3 and 70 cm^3 (2×) and 290 cm^3 and 84 cm^3 and 138 cm^3
same,side effects,"n = 6, 200 mg/day treatment period, resolved after reduction to 100 mg/day",hot flushes and vaginal dryness
same,menstrual status,[1],sustained amenorrhea
same,pelvic pain,[1],substantially reduced
same,mean uterine volume by MRI,"n = 6, after 12 weeks, 200 mg/day, baseline mean 320 cm^3",122 cm^3
same,menstrual status,"n = 6, weeks 13-24, 100 mg/day",remained in amenorrhea
same,all of the remaining EHP-30 scales,"single patient, after 24 weeks",0
same,endometrial thickness by vaginal ultrasound,"single patient, after 24 weeks",3 mm
same,hemoglobin (Hb) level,[2],13.6 g/dL
same,uterine volume by MRI,[2],440 cm^3
same,menstrual status,"single patient, after 24 weeks of treatment",still in amenorrhea
same,EHP-30 scale for emotional well-being,"single patient, after 24 weeks, baseline 58.3",4.2
same,"uterine volume on clinical evaluation, equivalent weeks of gestation","single patient, after first 12 weeks, 200 mg/day, 16-17 weeks before treatment",10 weeks of gestation
same,uterine volume by MRI,"single patient, after first 12 weeks, 200 mg/day, baseline approximately 875 cm^3",290 cm^3
same,concentration of E2,"single patient, after four weeks of 200 mg/day oral (choline salt), baseline 45 pg/mL",less than 20 pg/mL
same,"side effects (hot flushes, vaginal dryness) after dose reduction","single patient, after reduction to 100 mg/day",disappeared
same,5-scaled EHP-30 score,"single patient, end of first 12 weeks, 200 mg/day",0
same,side effects,"single patient, first treatment period, 200 mg/day",a few instances of hot flushes and vaginal dryness
same,menstrual status,"single patient, initial 12-week period, 200 mg once daily",remained in amenorrhea
same,hemoglobin (Hb) level,"single patient, week 12, 200 mg/day, baseline 10 g/dL",12.2 g/dL
same,E2 level,"single patient, week 16, reduced dose 100 mg/day (weeks 13-24)",38 pg/mL
same,E2 level,"single patient, week 20, reduced dose 100 mg/day (weeks 13-24)",26 pg/mL
same,E2 level,"single patient, week 24, reduced dose 100 mg/day (weeks 13-24)",52 pg/mL
same,"bone mineral density T-scores and Z-scores (femoral neck, lumbar spine), DEXA","single patient, week 24 versus baseline",unchanged
